Results taken from patent publication US10913738B2 (BRISTOL-MYERS SQUIBB COMPANY, priority 2017, dated 2021).
Read-outs that look alike come from different tables or passages of the source.

Assays:
[1] = test system: MLKL phosphorylation in HT29-L23 human colorectal adenocarcinoma cells; experiment: MLKL Phosphorylation High-Content Assay; assay type: cell-based; conditions: Homo sapiens
Method: MLKL Phosphorylation High-Content Assay
Following six hours incubation at 37° C. […] MLKL phosporylation was detected using anti-MLKL (phospho S358) antibody (Abcam #ab187091) (1:1000 dilution in Blocking Buffer [PBS supplemented with 0.1% BSA]) with overnight incubation at 4° C. […] Following another three cycles of washes in PBS, the microplates were sealed, and cellular images were acquired in the Cellomics ArrayScan VTI high-content imager equipped with an X1 camera. […] The image sets were analyzed using the Compartmental Analysis Bioapplication software (Cellomics). The level of MLKL phosphorylation was quantified as MEAN CircRingAvgIntenRatio. […] The data were fitted using the 4-parameter logistic equation to calculate the IC50 and Ymax values.

[2] = molecular target: T1, His-GST-TVMV-hRIPK1(1-324) (Homo sapiens, UniProt Q13546); experiment: RIPK1 HTRF Binding Assay
T1 construct: The coding region of human RIPK1(1-324) flanked by NdeI site at 5′ end; made in house; host or cells: Spodoptera frugiperda (Sf9) insect cells, baculovirus
T1 sequence (Q13546 1-324): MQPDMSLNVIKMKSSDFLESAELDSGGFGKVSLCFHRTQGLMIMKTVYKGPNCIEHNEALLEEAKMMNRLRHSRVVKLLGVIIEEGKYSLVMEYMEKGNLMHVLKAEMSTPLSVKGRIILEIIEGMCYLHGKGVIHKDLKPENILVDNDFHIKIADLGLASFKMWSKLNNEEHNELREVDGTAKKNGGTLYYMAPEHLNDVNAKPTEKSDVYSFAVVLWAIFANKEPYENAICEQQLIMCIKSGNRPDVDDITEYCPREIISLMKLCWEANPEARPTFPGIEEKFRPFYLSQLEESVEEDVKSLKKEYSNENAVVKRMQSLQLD
Method: The plate was incubated at rt for 1 h.
Cloning and Baculovirus Expression of RIPK1 Construct
Baculovirus was generated for the construct using the Bac-to-Bac baculovirus expression system (Invitrogen) according to the manufacturer's protocol. Briefly, recombinant bacmid was isolated from transformed DH10Bac E. coli competent cells (Invitrogen) and used to transfect Spodoptera frugiperda (Sf9) insect cells (Invitrogen). Baculovirus was harvested 72 hours post transfection and a virus stock was prepared by infecting fresh Sf9 cells at a 1/1000 (v/v) ratio for 66 hours.
The production was carried out either at a 10 L scale in a 22 L cellbag (GE Healthcare Bioscience, Pittsburgh, Pa.) or at a 20 L scale in a 50 L cellbag using WAVE-Bioreactor System 20/50 (GE Healthcare Bioscience). The infected cells were harvested by centrifugation at 2000 rpm for 20 min at 4° C. in a SORVALL® RC12BP centrifuge. The cell pellets was stored at −70° C. before protein was purified.
RIPK1 containing cell paste was resuspended in 50 mM Tris pH 7.5, 150 mM NaCl, 10 mM imidazole, 5% glycerol, 5 mM MgSO4, 1 mM TCEP, 25 U/ml Benzonase, and Complete Protease Inhibitor tablets (1/50 ml, Roche Diagnostics, Indianapolis, Ind.). […] The suspension was clarified by centrifugation at 136,000×g for 40 min, at 4° C. The lysate was decanted from the pellet and passed through a 5 ml NiNTA Superflow cartridge (Qiagen, Valencia, Calif.) using an AKTA Pure (GE Healthcare). Column was eluted with 10 CV linear gradient into 50 mM Tris 7.5, 150 mM NaCl, 500 mM imidazole, 5% glycerol, 1 mM TCEP. Peak fractions were pooled and loaded directly onto 5 ml GSTrap 4B column (GE Healthcare). Column was washed with 50 mM Tris 7.0, 150 mM NaCl, 5% glycerol, 1 mM DTT and eluted in 10 CV linear gradient into 50 mM Tris 8.0, 150 mM NaCl, 20 mM reduced glutathione, 5% glycerol, 1 mM DTT. Fractions identified by SDS-PAGE as containing RIPK1 were pooled and concentrated using 30 kDa MWCO spin concentrators (Amicon Ultra-15, Millipore, Billerica, Mass.) and loaded onto a HiLoad 26/600 Superdex 200 column (GE Healthcare) equilibrated in 25 mM Tris 7.5, 150 mM NaCl, 2 mM TCEP, 5% glycerol.
Protein was aliquoted and stored at −80° C.

[3] = x marks IC50 class >200 nM, read-out: pMLKL cell activity >200 nM
[4] = x marks IC50 class 20-200 nM, read-out: pMLKL cell activity 20-200 nM
[5] = x marks IC50 class 20-200 nM, read-out: RIPK1 HTRF binding 20-200 nM
[6] = x marks IC50 class <20 nM, read-out: RIPK1 HTRF binding <20 nM
[7] = x marks IC50 class <20 nM, read-out: pMLKL cell activity <20 nM

Compound	IC50 [1, 4]	IC50 [2, 6]	other results
Nc1nc2cc(-c3cnc(Cl)c(C(=O)NCc4ccc(F)cc4OCC4CC4)c3)ccn2n1 [Example 1, 5-(2-Amino-[1,2,4]triazolo[1,5-a]pyridin-7-yl)-2-chloro-N-([2-(cyclopropylmethoxy)-4-fluorophenyl]methyl)pyridine-3-carboxamide]	–	–	IC50 [1, 3]: > 200 nM; IC50 ([2]; x marks IC50 class >200 nM, read-out: RIPK1 HTRF binding >200 nM): > 200 nM
[2H]C([2H])(NC(=O)c1cc(-c2ccn3nc(N)nc3c2)cnc1OC)c1ccccc1OC(F)(F)F [Example 2, 5-{2-Amino-[1,2,4]triazolo[1,5-a]pyridin-7-yl}-2-methoxy-N-{[2-(trifluoromethoxy)phenyl](^2H)methyl}pyridine-3-carboxamide]	20 to 200 nM	–	IC50 [2, 5]: 20 to 200 nM
COc1nc(C)c(-c2ccn3nc(N)nc3c2)cc1C(=O)NCc1ccccc1OCC1CC(=O)C1 [Example 3, 5-{2-Amino-[1,2,4]triazolo[1,5-a]pyridin-7-yl}-2-methoxy-6-methyl-N-({2-[(3-oxocyclobutyl)methoxy]phenyl}methyl)pyridine-3-carboxamide]	20 to 200 nM	–	IC50 [2, 5]: 20 to 200 nM
COc1nc(C)c(-c2ccn3nc(N)nc3c2)cc1C(=O)NCc1ccccc1OCC1CC(F)(F)C1 [Example 4, 5-{2-Amino-[1,2,4]triazolo[1,5-a]pyridin-7-yl}-N-({2-[(3,3-difluorocyclobutyl)methoxy]phenyl}methyl)-2-methoxy-6-methylpyridine-3-carboxamide]	20 to 200 nM	< 20 nM	–
Cc1ncc(-c2ccn3nc(N)nc3c2)cc1C(=O)NCc1ccccc1OC1CCOCC1 [Example 5, 5-{2-Amino-[1,2,4]triazolo[1,5-a]pyridin-7-yl}-2-methyl-N-{[2-(oxan-4-yloxy)phenyl]methyl}pyridine-3-carboxamide]	20 to 200 nM	< 20 nM	–
COc1nc(C)c(-c2ccn3nc(N)nc3c2)cc1C(=O)NCc1ccccc1OC1CCOC1 (stereo not shown) [Example 6, 5-{2-Amino-[1,2,4]triazolo[1,5-a]pyridin-7-yl}-2-methoxy-6-methyl-N-{[2-(oxolan-3-yloxy)phenyl]methyl}pyridine-3-carboxamide]	–	< 20 nM	IC50 [1, 7]: < 20 nM
COc1nc(C)c(-c2ccn3nc(N)nc3c2)cc1C(=O)NCc1ccccc1OCC1CCCCC1 [Example 7, 5-{2-Amino-[1,2,4]triazolo[1,5-a]pyridin-7-yl}-N-{[2-(cyclohexylmethoxy)phenyl]methyl}-2-methoxy-6-methylpyridine-3-carboxamide]	20 to 200 nM	< 20 nM	–
COc1nc(C)c(-c2ccn3nc(N)nc3c2)cc1C(=O)NCc1cccnc1OCC1CCCC1 [Example 8, 5-{2-Amino-[1,2,4]triazolo[1,5-a]pyridin-7-yl}-N-{[2-(cyclopentylmethoxy)pyridin-3-yl]methyl}-2-methoxy-6-methylpyridine-3-carboxamide]	20 to 200 nM	< 20 nM	–
COc1nc(C)c(-c2ccn3nc(N)nc3c2)cc1C(=O)NCc1cc(F)cc(F)c1OCC1CC1 [Example 9, 5-{2-Amino-[1,2,4]triazolo[1,5-a]pyridin-7-yl}-N-{[2-(cyclopropylmethoxy)-3,5-difluorophenyl]methyl}-2-methoxy-6-methylpyridine-3-carboxamide]	–	< 20 nM	IC50 [1, 7]: < 20 nM
COc1ncc(-c2ccn3nc(N)nc3c2)cc1C(=O)NCc1ccccc1OCC1CCC(C)CC1 (stereo not shown) [Example 10, 5-{2-Amino-[1,2,4]triazolo[1,5-a]pyridin-7-yl}-2-methoxy-N-({2-[(4-methylcyclohexyl)methoxy]phenyl}methyl)pyridine-3-carboxamide]	–	–	IC50 [1, 3]: > 200 nM; IC50 [2, 5]: 20 to 200 nM
COc1nc(C)c(-c2ccn3nc(N)nc3c2)cc1C(=O)NCc1ccccc1OCC1CCC(F)(F)CC1 [Example 11, 5-{2-Amino-[1,2,4]triazolo[1,5-a]pyridin-7-yl}-N-({2-[(4,4-difluorocyclohexyl)methoxy]phenyl}methyl)-2-methoxy-6-methylpyridine-3-carboxamide]	–	< 20 nM	IC50 [1, 3]: > 200 nM
